The values that follow come from patent publication US12692264B2, “Pyrimidine or pyridine derivative, preparation method therefor, and application thereof in pharmacy” (ABBISKO THERAPEUTICS CO., LTD., priority 2021, dated 2026).

Format in all cases: cell-based
The subject of assay [1] is A431 (EGFR-WT). Kind of assay: Cell proliferation study (CellTiter-Glo, 72 hrs), A431. The settings on record: Homo sapiens, A-431, A431 cells, CTG, * = average of multiple measurements. The gist of the method: (§1)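 Cells were seeded overnight, then exposed for 72 hrs at 37 °C, 5% CO2 to 9 concentrations in 3.16-fold steps, 0.1% DMSO final, triplicate wells. Viability was read by CellTiter-Glo luminescence, with a T0 plate read at dosing. IC50 came from nonlinear sigmoidal dose-response fits.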

Assay [2] has as its target Ba/F3 EGFR-D770-N771ins_SVD (Homo sapiens, UniProt P00533, DUP768-770, cells depend on it). The experiment in a line: Cell proliferation study (CellTiter-Glo, 72 hrs), Ba/F3 EGFR-D770-N771ins_SVD. The settings on record: CTG, * = average of multiple measurements, read-out: Ba/F3 EGFR-D770-N771ins_SVD IC50. The gist of the method:
as §1
For orientation: ATP-based viability assays read luminescence as a measure of living cells.

Assay [3] has as its target Ba/F3 EGFR-V769_D770insASV (Homo sapiens, UniProt P00533, DUP767-769, cells depend on it). Kind of assay: Cell proliferation study (CellTiter-Glo, 72 hrs), Ba/F3 EGFR-V769_D770insASV. Particulars: CTG, * = average of multiple measurements, read-out: Ba/F3 EGFR-V769_D770insASV IC50. A digest of the protocol: as §1

pIC50: −log10 of the molar value.

Chain of Ba/F3 EGFR-D770-N771ins_SVD (P00533 with tags, fused parts or gaps DUP768-770): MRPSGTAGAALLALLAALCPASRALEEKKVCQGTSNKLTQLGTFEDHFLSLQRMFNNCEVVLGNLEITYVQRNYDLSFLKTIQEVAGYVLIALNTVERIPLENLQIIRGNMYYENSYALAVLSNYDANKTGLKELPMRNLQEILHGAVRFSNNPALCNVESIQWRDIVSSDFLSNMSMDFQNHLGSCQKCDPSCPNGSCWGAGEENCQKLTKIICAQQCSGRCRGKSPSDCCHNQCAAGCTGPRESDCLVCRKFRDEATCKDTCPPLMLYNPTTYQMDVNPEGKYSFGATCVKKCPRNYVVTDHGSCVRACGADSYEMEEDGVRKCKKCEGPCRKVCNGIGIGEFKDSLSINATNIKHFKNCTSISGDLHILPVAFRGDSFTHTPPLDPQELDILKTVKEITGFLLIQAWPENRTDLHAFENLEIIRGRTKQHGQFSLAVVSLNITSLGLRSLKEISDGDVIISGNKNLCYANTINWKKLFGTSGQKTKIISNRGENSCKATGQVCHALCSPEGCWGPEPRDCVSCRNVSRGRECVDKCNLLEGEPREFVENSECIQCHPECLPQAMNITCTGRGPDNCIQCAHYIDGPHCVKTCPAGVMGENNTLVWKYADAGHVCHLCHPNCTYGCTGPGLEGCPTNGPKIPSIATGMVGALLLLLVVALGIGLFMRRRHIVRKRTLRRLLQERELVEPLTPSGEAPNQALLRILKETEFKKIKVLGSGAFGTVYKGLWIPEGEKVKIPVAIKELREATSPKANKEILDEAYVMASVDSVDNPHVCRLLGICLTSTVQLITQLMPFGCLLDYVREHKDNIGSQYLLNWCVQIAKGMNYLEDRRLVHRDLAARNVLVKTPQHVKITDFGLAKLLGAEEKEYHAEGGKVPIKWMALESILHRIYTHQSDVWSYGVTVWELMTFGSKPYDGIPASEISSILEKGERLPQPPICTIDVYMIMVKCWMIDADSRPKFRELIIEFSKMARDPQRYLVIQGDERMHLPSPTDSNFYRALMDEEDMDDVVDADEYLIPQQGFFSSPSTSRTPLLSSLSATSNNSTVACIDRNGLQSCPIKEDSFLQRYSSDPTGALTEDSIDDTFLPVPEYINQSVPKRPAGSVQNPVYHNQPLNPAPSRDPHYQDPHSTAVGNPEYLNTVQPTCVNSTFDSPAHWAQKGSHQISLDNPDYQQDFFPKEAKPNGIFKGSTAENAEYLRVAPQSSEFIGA
Chain of Ba/F3 EGFR-V769_D770insASV (P00533 with tags, fused parts or gaps DUP767-769): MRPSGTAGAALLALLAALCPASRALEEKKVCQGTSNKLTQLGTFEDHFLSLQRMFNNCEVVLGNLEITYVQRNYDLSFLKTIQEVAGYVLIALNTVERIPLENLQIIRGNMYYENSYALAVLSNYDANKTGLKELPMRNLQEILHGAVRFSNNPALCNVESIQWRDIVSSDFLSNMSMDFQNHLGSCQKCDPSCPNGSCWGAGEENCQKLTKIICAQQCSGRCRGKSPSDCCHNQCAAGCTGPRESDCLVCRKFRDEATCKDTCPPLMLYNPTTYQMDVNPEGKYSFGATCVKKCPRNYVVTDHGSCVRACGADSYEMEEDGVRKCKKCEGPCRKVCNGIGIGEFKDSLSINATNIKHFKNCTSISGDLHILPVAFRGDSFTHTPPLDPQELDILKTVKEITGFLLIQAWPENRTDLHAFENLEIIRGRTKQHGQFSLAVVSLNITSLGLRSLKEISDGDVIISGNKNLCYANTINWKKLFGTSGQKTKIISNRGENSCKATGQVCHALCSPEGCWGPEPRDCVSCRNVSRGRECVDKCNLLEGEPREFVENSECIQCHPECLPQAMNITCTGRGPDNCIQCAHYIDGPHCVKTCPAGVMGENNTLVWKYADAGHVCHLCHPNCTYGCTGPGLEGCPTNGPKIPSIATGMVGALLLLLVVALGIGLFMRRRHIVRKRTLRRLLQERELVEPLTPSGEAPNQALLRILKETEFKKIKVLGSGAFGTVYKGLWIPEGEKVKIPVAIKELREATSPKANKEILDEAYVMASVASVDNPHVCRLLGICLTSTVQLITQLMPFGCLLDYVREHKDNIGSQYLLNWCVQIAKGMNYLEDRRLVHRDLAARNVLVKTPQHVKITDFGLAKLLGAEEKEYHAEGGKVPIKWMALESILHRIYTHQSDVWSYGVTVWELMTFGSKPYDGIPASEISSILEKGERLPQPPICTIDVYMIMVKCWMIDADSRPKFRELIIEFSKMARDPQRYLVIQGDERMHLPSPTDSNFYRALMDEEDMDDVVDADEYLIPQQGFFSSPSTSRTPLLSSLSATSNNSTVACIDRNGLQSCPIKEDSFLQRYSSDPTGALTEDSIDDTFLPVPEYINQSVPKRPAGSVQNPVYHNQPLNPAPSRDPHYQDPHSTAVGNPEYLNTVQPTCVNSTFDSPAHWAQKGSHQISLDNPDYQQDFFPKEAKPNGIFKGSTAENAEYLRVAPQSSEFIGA

Broadly, the pIC50 is −log10 of the IC50, conventionally taken in molar units. As to `C=CC(=O)Nc1cc(Nc2ncc(C(=O)OC(C)C)c(N3CC(C)(C)c4nc(C)ccc43)n2)c(OC)nc1N1CCC[C@@H]1CN(C)C` [Example 31, isopropyl (R)-2-((5-acrylamido-6-(2-((dimethyl-amino)methyl)pyrrolidin-1-yl)-2-meth-oxypyridin-3-yl)amino)-4-(3,3,5-tri-methyl-2,3-dihydro-1H-pyrrolo[3,2-b]pyridin-1-yl)pyrimidine-5-carboxylate], the pIC50 in assay [1] was 6.74. For the same compound, the GI50 in assay [2] worked out at 11.8 nM; in assay [3], 13.9 nM.
The compound `C=CC(=O)Nc1cc(Nc2ncc(C(=O)OC(C)C)c(N3CC4(CC4)c4nc(C)ccc43)n2)c(OC)cc1N(C)CCN(C)C` [Example 22, isopropyl 2-((5-acrylamido-4-((2-(dimethylami-no)ethyl)(methyl)amino)-2-methoxy-phenyl)amino)-4-(5′-methylspiro(cyclo-propane-1,3′-pyrrolo[3,2-b]pyridin)-1′(2′H)-yl)pyrimidine-5-carboxylate] gave a negative logarithm of the IC50 (pIC50) in assay [1] of 6.90. Also, the GI50 in assay [2] was 20.6 nM; in assay [3] it was 48.8 nM.
`C=CC(=O)Nc1cc(Nc2ncc(C(=O)OC(C)C)c(N3CC(C)(C)c4nc(Cl)ccc43)n2)c(OC)cc1N(C)CCN(C)C` [Example 57, isopropyl 2-((5-acrylamido-4-((2-(dimethylami-no)ethyl)(methyl)amino)-2-methoxy-phenyl)amino)-4-(5-chloro-3,3-dimethyl-2,3-dihydro-1H-pyrrolo[3,2-b]pyridin-1-yl)pyrimidine-5-carboxylate] gave a pIC50 in assay [1] of 6.01. For the same compound, the GI50 in assay [2] is 23.3 nM; in assay [3], 62.4 nM.
In the same order, the values of `C=CC(=O)Nc1cc(Nc2ncc(C(=O)OC(C)C)c(N3CC(C)(C)c4ncccc43)n2)c(OC)cc1N1C[C@@H](F)C[C@@H]1CN(C)C` [Example 88, isopropyl 2-((5-acrylamido-4-((2R,4S)-2-((di-methylamino)methyl)-4-fluoro-pyrrolidin-1-yl)-2-methoxy-phenyl)amino)-4-(3,3-dimethyl-2,3-dihydro-1H-pyrrolo[3,2-b]pyridin-1-yl)pyrimidine-5-carboxylate] are 7.68, 15.4 nM and 9.2 nM.
In the same order, the values of `[2H]C1([2H])N(c2nc(Nc3cc(NC(=O)C=C)c(N(C)CCN(C)C)cc3OC)ncc2C(=O)OC(C)C)c2ccc(C)nc2C1(C)C` [Example 47, isopropyl 2-((5-acrylamido-4-((2-(dimethylami-no)ethyl)(methyl)amino)-2-methoxy-phenyl)amino)-4-(3,3,5-trimethyl-2,3-dihydro-1H-pyrrolo[3,2-b]pyridin-1-yl-2,2-d2)pyrimidine-5-carboxylate] are 7.25, 13.4 nM and 22.4 nM.
The compound `C=CC(=O)Nc1cc(Nc2ncc(C(=O)OC(C)C)c(N3CC(C)(C)c4ccccc43)n2)c(OC)cc1N1C[C@@H](F)C[C@@H]1CN(C)C` [Example 87, isopropyl 2-((5-acrylamido-4-((2R,4S)-2-((di-methylamino)methyl)-4-fluoro-pyrrolidin-1-yl)-2-methoxy-phenyl)amino)-4-(3,3-dimethyl-indolin-1-yl)pyrimidine-5-carboxylate] had a pIC50 in assay [1] of 7.24. For the same compound, the results for the GI50 in assay [2] and in assay [3] were 25.8 nM and 12.5 nM, respectively.
In the same order, the values of `C=CC(=O)Nc1cc(Nc2ncc(C(=O)OC(C)C)c(N3CC(C)(C)c4nc(-c5cnn(C)c5)ccc43)n2)c(OC)cc1N(C)CCN(C)C` [Example 8, isopropyl 2-((5-acrylamido-4-((2-(dimethylami-no)ethyl)(methyl)amino)-2-methoxy-phenyl)amino)-4-(3,3-dimethyl-5-(1-methyl-1H-pyrazol-4-yl)-2,3-dihydro-1H-pyrrolo[3,2-b]pyridin-1-yl)pyrimidine-5-carboxylate] are 6.99, 11 nM and 18.7 nM.
